Laboratory results as given in US8735417B2, “Aminopyrimidines as Syk inhibitors” (Merck Sharp & Dohme Corp., priority 2009, dated 2014).

Each compound was assayed against T1, recombinant human GST-SYK (Homo sapiens, UniProt P43405) (assay: Homogeneous Time-Resolved Fluorescence (HTRF) assay for the recombinant human SYK enzyme). Conditions: recombinant human GST-SYK 5 pM, ATP 25 μM, 10-dose titration; read-out: rhSYK Activity (IC50).
T1 construct: purchased Carna Biosciences 08-176
Assay type: biochemical
Method: Homogeneous Time-Resolved Fluorescence (HTRF) Assay for the Recombinant Human SYK Enzyme:
A recombinant GST-hSYK fusion protein was used to measure potency of compounds to inhibit human SYK activity. The recombinant human GST-SYK (Carna Biosciences #08-176) (5 pM final concentration) was incubated with various concentrations of the inhibitor diluted in DMSO (0.1% final concentration) for 10 minutes at room temperature in 15 mM Tris-HCl (pH 7.5), 0.01% tween 20, 2 mM DTT in 384 well plate format. To initiate the reaction the biotinylated substrate peptide (250 nM final concentration) that contains the phosphorylation site for SYK was added with magnesium (5 mM final concentration) and ATP (25 μM final concentration). Final volume of the reaction was 10 μL. Phosphorylation of the peptide was allowed to proceed for 45′ at room temperature. To quench the reaction and detect the phosphorylated product, 2 nM of a Europium-atiti-phosphotyrosine antibody (Perkin Elmer #AD0161) and 70 nM SA-APC (Perkin-Elmer #CR130-100) were added together in 15 mM Tris pH 7.5, 40 mM EDTA, 0.01% tween 20. Final volume of the quenching solution was 10 μL. The resulting HTRF signal was measured after 30 minutes on a EnVision (Perkin-Elmer) reader using a time-resolved fluorescence protocol.

Row | Structure (SMILES) | IC50
1 | Cc1ccnc(Nc2cccc(-c3cnc(N4CCC(C(=O)O)CC4)s3)c2)n1 [Example 193, 1-(5-{3-[(4-methylpyrimidin-2-yl)amino]phenyl}-1,3-thiazol-2-yl)piperidine-4-carboxylic acid] | 100 to 1000 nM
2 | COc1ccc(CCNc2ncc(-c3cccc(Nc4nccc(C(F)(F)F)n4)c3)s2)cc1 [Example 54] | 100 to 1000 nM
3 | COC(=O)c1ccc(N(C)c2ncc(-c3cccc(Nc4nccc(C(F)(F)F)n4)c3)s2)cc1 [Example 30] | 100 to 1000 nM
4 | C[C@@H](Nc1ncc(-c2cccc(Nc3nccc(C(F)(F)F)n3)c2)s1)C1CCCCC1 [Example 65] | 1000 to 10000 nM
5 | CC(=O)Nc1cc(Nc2nccc(C(F)(F)F)n2)cc(-c2cnc(N(C)CCO)s2)c1 [Example 186] | ≤ 100 nM
6 | Cn1cnc(CNc2ncc(-c3cccc(Nc4nccc(C(F)(F)F)n4)c3)s2)c1 [Example 81] | ≤ 100 nM
7 | Cc1cc(Nc2nccc(C3CCCC3)n2)cc(-c2cnc(N3CCCNC(=O)C3)s2)c1 [Example 197, 4-(5-{3-[(4-cyclopentylpyrimidin-2-yl)amino]-5-methylphenyl}-1,3-thiazol-2-yl)-1,4-diazepan-2-one] | ≤ 100 nM
8 | CCCSc1ccnc(Nc2cc(C)cc(-c3cnc(N4CCCNC(=O)C4)s3)c2)n1 [Example 220] | ≤ 100 nM
9 | Cc1ccnc(Nc2cccc(-c3csc(N4CCC(C(N)=O)CC4)n3)c2)n1 [Example 232] | 100 to 1000 nM
10 | FC(F)(F)c1ccnc(Nc2cccc(-c3cnc(N4CCOCC4)s3)c2)n1 [Example 119] | ≤ 100 nM
11 | Cc1cc(Nc2nccc(C(F)(F)F)n2)cc(-c2cnc(NCCc3cccs3)s2)c1 [Example 108] | 100 to 1000 nM
12 | O=C1CCN(c2ncc(-c3cccc(Nc4nccc(C(F)(F)F)n4)c3)s2)CCN1 [Example 168] | ≤ 100 nM
13 | O[C@H]1CC[C@H](Nc2ncc(-c3cccc(Nc4nccc(C(F)(F)F)n4)c3)s2)CC1 [Example 19] | ≤ 100 nM
14 | CCCC[C@@H](CO)Nc1ncc(-c2cccc(Nc3nccc(C(F)(F)F)n3)c2)s1 [Example 74] | ≤ 100 nM
15 | Cc1cc(Nc2nccc(C3CC3)n2)cc(-c2cnc(N3CCCNC(=O)C3)s2)c1 [Example 198, 4-(5-{3-[(4-cyclopropylpyrimidin-2-yl)amino]-5-methyphenyl}-1,3-thiazol-2-yl)-1,4-diazepan-2-one] | ≤ 100 nM
16 | CCCCN(CCO)c1ncc(-c2cccc(Nc3nccc(C(F)(F)F)n3)c2)s1 [Example 6] | ≤ 100 nM
17 | OCC1CCCCN1c1ncc(-c2cccc(Nc3nccc(C(F)(F)F)n3)c2)s1 (stereo not shown) [Example 132] | ≤ 100 nM
18 | CS(=O)(=O)Nc1ncc(-c2cccc(Nc3nccc(C(F)(F)F)n3)c2)s1 [Example 177] | ≤ 100 nM
19 | Cc1cc(Nc2nccc(OCc3ccccc3)n2)cc(-c2cnc(N3CCCNC(=O)C3)s2)c1 [Example 208] | ≤ 100 nM
20 | FC(F)(F)c1ccnc(Nc2cccc(-c3cnc(NCc4cccc(N5CCCCC5)c4)s3)c2)n1 [Example 57] | 1000 to 10000 nM
21 | Cc1cc(Nc2nccc(C(F)(F)F)n2)cc(-c2cnc(NCc3cnn(C)c3)s2)c1 [Example 100] | ≤ 100 nM
22 | Cc1cc(Nc2nccc(C(F)(F)F)n2)cc(-c2cnc(NCC(O)c3ccncc3)s2)c1 (stereo not shown) [Example 117] | 100 to 1000 nM
23 | CCCN(CCO)c1ncc(-c2cccc(Nc3nccc(C(F)(F)F)n3)c2)s1 [Example 52] | ≤ 100 nM
24 | COCC(=O)N1CCN(c2ncc(-c3cccc(Nc4nccc(C(F)(F)F)n4)c3)s2)CC1 [Example 127] | ≤ 100 nM
25 | Cc1cc(Nc2ncc(F)cn2)cc(-c2cnc(N3CCCNC(=O)C3)s2)c1 [Example 201] | ≤ 100 nM
26 | FC(F)(F)c1ccnc(Nc2cccc(-c3cnc(NCc4cccnc4)s3)c2)n1 [Example 39] | ≤ 100 nM
27 | FC(F)(F)c1ccnc(Nc2cccc(-c3cnc(N4CCC(n5cc(-c6ccccc6)nn5)CC4)s3)c2)n1 [Example 137] | 100 to 1000 nM
28 | CC(Cc1cnccn1)Nc1ncc(-c2cccc(Nc3nccc(C(F)(F)F)n3)c2)s1 (stereo not shown) [Example 56] | ≤ 100 nM
29 | Cc1cc(Nc2nccc(C(F)(F)F)n2)cc(-c2cnc(N3CCC4(CCNC4)CC3)s2)c1 [Example 1, N-{3-[2-(2,8-diazaspiro[4.5]dec-8-yl)-1,3-thiazol-5-yl]-5-methylphenyl}-4-(trifluoromethyl)-pyrimidin-2-amine] | ≤ 100 nM
30 | FC(F)(F)c1ccnc(Nc2cccc(-c3cnc(NCCc4cccs4)s3)c2)n1 [Example 40] | 100 to 1000 nM

Continued, values first:

Row | IC50 | Structure (SMILES)
31 | ≤ 100 nM | Cc1cc(Nc2nccc(C3CCC3)n2)cc(-c2cnc(N3CCCNC(=O)C3)s2)c1 [Example 195]
32 | ≤ 100 nM | O=C(O)c1cccc(N2CCN(c3ncc(-c4cccc(Nc5nccc(C(F)(F)F)n5)c4)s3)CC2)c1 [Example 125]
33 | ≤ 100 nM | CCSc1ccnc(Nc2cc(C)cc(-c3cnc(N4CCCNC(=O)C4)s3)c2)n1 [Example 221]
34 | ≤ 100 nM | Cc1cc(Nc2nccc(C(F)(F)F)n2)cc(-c2cnc(N3CCCNC(=O)C3)s2)c1 [Example 226, 4-[5-(3-methyl-5-{[4-(trifluoromethyl)pyrimidin-2-yl]amino}phenyl)-1,3-thiazol-2-yl]-1,4-diazepan-2-one]
35 | ≤ 100 nM | Cc1cc(Nc2nccc(C(F)(F)F)n2)cc(-c2cnc(NCc3cncn3C)s2)c1 [Example 87]
36 | ≤ 100 nM | Cc1cnc(Nc2cc(C)cc(-c3cnc(N4CCCNC(=O)C4)s3)c2)nc1 [Example 203]
37 | ≤ 100 nM | Cc1cc(Nc2nccc(C(F)(F)F)n2)cc(-c2sc(N3CCCNC(=O)C3)nc2Cl)c1 [Example 228, 4-[4-chloro-5-(3-methyl-5-{[4-(trifluoromethyl)pyrimidin-2-yl]amino}phenyl)-1,3-thiazol-2-yl]-1,4-diazepan-2-one]
38 | ≤ 100 nM | Cc1cc(Nc2nccc([S+](C)[O-])n2)cc(-c2cnc(N3CCCNC(=O)C3)s2)c1 (stereo not shown) [Example 223, 4-[5-(3-methyl-5-{[4-(methylsulfinyl)pyrimidin-2-yl]amino}phenyl)-1,3-thiazol-2-yl]-1,4-diazepan-2-one]
39 | ≤ 100 nM | Cn1cncc1CNc1ncc(-c2cccc(Nc3nccc(C(F)(F)F)n3)c2)s1 [Example 22]
40 | ≤ 100 nM | Cc1cc(Nc2nccc(C(F)(F)F)n2)cc(-c2cnc(N3CCN4CCCC4C3)s2)c1 (stereo not shown) [Example 172]
41 | ≤ 100 nM | FC(F)(F)c1ccnc(Nc2cccc(-c3cnc(NCc4ccccn4)s3)c2)n1 [Example 37]
42 | ≤ 100 nM | FC(F)(F)c1ccnc(Nc2cccc(-c3cnc(NCC4CCCNC4)s3)c2)n1 (stereo not shown) [Example 59]
43 | ≤ 100 nM | Cc1cc(Nc2nccc(C(F)(F)F)n2)cc(-c2cnc(NCc3cnsc3)s2)c1 [Example 104]
44 | ≤ 100 nM | Cc1cc(Nc2nccc(C(F)(F)F)n2)cc(-c2cnc(NCCc3ccncc3)s2)c1 [Example 118]
45 | ≤ 100 nM | COc1nc(Nc2cc(C)cc(-c3cnc(N4CCCNC(=O)C4)s3)c2)ncc1Cl [Example 210, 4-(5-{3-[(5-chloro-4-methoxypyrimidin-2-yl)amino]-5-methylphenyl}-1,3-thiazol-2-yl)-1,4-diazepan-2-one]
46 | ≤ 100 nM | OCCNc1ncc(-c2cccc(Nc3nccc(C(F)(F)F)n3)c2)s1 [Example 2]
47 | ≤ 100 nM | CN(c1ncc(-c2cccc(Nc3nccc(C(F)(F)F)n3)c2)s1)C1CCOC1 (stereo not shown) [Example 36]
48 | ≤ 100 nM | OCC1CCN(c2ncc(-c3cccc(Nc4nccc(C(F)(F)F)n4)c3)s2)CC1 [Example 130]
49 | ≤ 100 nM | Cc1cc(Nc2nccc(C(F)(F)F)n2)cc(-c2cnc(N3CCC(CC(N)=O)CC3)s2)c1 [Example 148]
